{"source": "paper PMC9284491", "about": "(Nature Communications, 2022)", "origin": "cited, not measured here", "key": {"ER": {"target": "T1, ER (Homo sapiens, UniProt P03372)", "T1 sequence (P03372 1-595)": "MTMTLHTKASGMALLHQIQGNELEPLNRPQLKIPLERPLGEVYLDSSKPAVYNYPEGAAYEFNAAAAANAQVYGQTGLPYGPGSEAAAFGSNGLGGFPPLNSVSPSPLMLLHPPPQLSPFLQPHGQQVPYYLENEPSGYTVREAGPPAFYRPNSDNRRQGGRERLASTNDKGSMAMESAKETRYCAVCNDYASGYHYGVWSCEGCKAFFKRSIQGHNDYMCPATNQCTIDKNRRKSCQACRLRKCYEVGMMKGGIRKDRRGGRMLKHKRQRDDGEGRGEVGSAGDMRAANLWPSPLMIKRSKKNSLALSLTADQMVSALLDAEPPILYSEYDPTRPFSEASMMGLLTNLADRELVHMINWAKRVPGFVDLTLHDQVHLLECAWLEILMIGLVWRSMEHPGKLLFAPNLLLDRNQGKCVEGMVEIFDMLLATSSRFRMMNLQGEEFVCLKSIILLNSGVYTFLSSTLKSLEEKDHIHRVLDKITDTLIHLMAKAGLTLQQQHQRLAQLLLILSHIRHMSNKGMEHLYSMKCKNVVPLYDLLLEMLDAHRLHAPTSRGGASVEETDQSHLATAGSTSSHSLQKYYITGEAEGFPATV", "conditions": "maximum 500 mg dose; cited from earlier work"}, "[1]": {"conditions": "500 mg intramuscular (day 1, day 14 of cycle 1, monthly from cycle 2); cited from earlier work"}}, "data": [{"smiles": "C[C@]12CC[C@@H]3c4ccc(O)cc4C[C@@H](CCCCCCCCC[S+]([O-])CCCC(F)(F)C(F)(F)F)[C@H]3[C@@H]1CC[C@@H]2O", "note": "(some centres unmarked) [fulvestrant]", "values": [{"measurement": "ER occupancy at maximum dose", "setting": "ER", "value": "does not fully occupy the ER"}, {"measurement": "Ctrough at steady state", "setting": "[1]", "value": 12.5, "unit": "ng/mL"}]}]}
